Biological target: T1, human HSL (Homo sapiens, UniProt Q05469)
T1 construct: overlapping PCR to generate a full length human HSL ORF with a 3′-His6 tag; His6 (C); made in house; host or cells: High 5 insect cells (baculovirus, pFast-BAC)
T1 sequence (Q05469 1-1076): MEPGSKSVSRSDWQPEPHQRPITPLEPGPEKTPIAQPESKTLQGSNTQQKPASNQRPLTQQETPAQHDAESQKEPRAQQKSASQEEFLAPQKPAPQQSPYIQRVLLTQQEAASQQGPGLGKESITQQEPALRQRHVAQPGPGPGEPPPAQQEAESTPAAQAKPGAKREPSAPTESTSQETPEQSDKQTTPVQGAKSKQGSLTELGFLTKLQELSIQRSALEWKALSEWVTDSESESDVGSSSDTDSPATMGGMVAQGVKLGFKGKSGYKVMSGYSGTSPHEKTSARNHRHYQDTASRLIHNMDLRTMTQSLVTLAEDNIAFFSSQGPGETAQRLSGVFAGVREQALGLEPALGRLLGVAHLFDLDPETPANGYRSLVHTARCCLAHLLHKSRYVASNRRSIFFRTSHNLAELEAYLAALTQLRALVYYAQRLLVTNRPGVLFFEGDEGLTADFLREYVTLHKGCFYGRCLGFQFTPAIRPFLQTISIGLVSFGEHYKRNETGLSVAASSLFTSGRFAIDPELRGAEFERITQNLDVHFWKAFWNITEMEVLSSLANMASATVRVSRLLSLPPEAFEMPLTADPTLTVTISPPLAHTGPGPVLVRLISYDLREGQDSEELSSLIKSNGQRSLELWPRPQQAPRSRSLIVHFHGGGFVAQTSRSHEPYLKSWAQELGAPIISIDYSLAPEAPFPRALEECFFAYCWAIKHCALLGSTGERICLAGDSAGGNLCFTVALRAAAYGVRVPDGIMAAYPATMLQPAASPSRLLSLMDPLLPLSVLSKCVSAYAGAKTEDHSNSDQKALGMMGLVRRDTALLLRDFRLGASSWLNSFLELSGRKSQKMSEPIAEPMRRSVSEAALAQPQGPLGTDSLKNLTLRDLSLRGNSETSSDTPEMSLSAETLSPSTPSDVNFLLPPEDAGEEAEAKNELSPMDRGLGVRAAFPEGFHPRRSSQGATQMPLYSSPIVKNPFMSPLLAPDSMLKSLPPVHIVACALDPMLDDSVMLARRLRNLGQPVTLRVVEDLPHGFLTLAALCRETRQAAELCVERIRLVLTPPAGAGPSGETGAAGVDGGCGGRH
Assay: Human hormone-sensitive lipase (HSL) enzyme inhibition assay (colorimetric, DMPT substrate)
Type: biochemical
Conditions: human full length HSL-His6; 2,3-dimercapto-1-propanol tributyrate substrate; 37° C., 20 minutes; read-out: HSL hum IC50
Outline: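 Full-length human HSL with C-terminal His6, expressed in baculovirus/High 5 cells and Ni-NTA purified, was added from a 15 µg/ml solution to 1.5 mM DMPT in 100 mM MOPS pH 7.2, 0.2 mg/ml fatty acid-free BSA. After 20 min at 37 °C, DTNB with SDS/Triton X-100 was added, 15 min RT, and A405 read.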

Going from `O=C(Nc1ccc(OC(F)(F)F)cc1)C1CCN(S(=O)(=O)c2ccccc2)CC1` [Example 46, 1-Benzenesulfonyl-piperidine-4-carboxylic acid (4-trifluoromethoxy-phenyl)-amide] to `CC(C)Oc1ccc(NC(=O)C2CCN(S(=O)(=O)c3ccccc3)CC2)cc1` [Example 47, 1-Benzenesulfonyl-piperidine-4-carboxylic acid (4-isopropoxy-phenyl)-amide], the IC50 rises from 40 nM to 70 nM (1.8-fold). The first is the more potent here.

Going from `COc1ccc(S(=O)(=O)N2CCC(C(=O)Nc3ccc(OC(F)(F)F)cc3)CC2)cc1` [Example 48, 1-(4-Methoxy-benzenesulfonyl)-piperidine-4-carboxylic acid (4-trifluoromethoxy-phenyl)-amide] to `COc1ccc(S(=O)(=O)N2CCC(C(=O)Nc3ccc(OC(C)C)cc3)CC2)cc1` [Example 49, 1-(4-Methoxy-benzenesulfonyl)-piperidine-4-carboxylic acid (4-isopropoxy-phenyl)-amide], the IC50 rises from 40 nM to 90 nM (2.2-fold).

`Cc1ccc(S(=O)(=O)N2CCC(CO)(C(=O)Nc3ccc(OC(F)(F)F)cc3)CC2)cc1` [Example 51] and `CC1(C(=O)Nc2ccc(OC(F)(F)F)cc2)CCN(S(=O)(=O)c2ccccc2)CC1` [Example 57, 1-Benzenesulfonyl-4-methyl-piperidine-4-carboxylic acid (4-trifluoromethoxy-phenyl)-amide] are within 1.5-fold of each other in IC50: 330 nM for the first, 250 nM for the second.

Going from `CC(C)(C)CCC(=O)N1CCC(C(=O)Nc2ccc(OC(F)(F)F)cc2)CC1` [Example 56, 1-(4,4-Dimethyl-pentanoyl)-piperidine-4-carboxylic acid (4-trifluoromethoxy-phenyl)-amide] to `Cc1ccc(S(=O)(=O)N2CCC(C(=O)Nc3ccc(O[C@H](CCO)C(F)(F)F)cc3)CC2)cc1` [Example 60, 1-(Toluene-4-sulfonyl)-piperidine-4-carboxylic acid [4-((R)-3-hydroxy-1-trifluoromethyl-propoxy)-phenyl]-amide], the IC50 falls from 260 nM to 70 nM (3.7-fold). The second is the more potent here.

Going from `CC1(C(=O)Nc2ccc(OC(F)(F)F)cc2)CCN(S(=O)(=O)c2ccccc2Cl)CC1` [Example 58, 1-(2-Chloro-benzenesulfonyl)-4-methyl-piperidine-4-carboxylic acid (4-trifluoromethoxy-phenyl)-amide] to `Cn1cc(S(=O)(=O)N2CCC(F)(C(=O)Nc3ccc(OC(F)(F)F)cc3)CC2)c(C(F)(F)F)n1` [Example 63, 4-Fluoro-1-(1-methyl-3-trifluoromethyl-1H-pyrazole-4-sulfonyl)-piperidine-4-carboxylic acid (4-trifluoromethoxy-phenyl)-amide], the IC50 rises from 540 nM to 1090 nM (2-fold).

First: COCC[C@@H](Oc1ccc(NC(=O)C2CCN(S(=O)(=O)c3ccc(C)cc3)CC2)cc1)C(F)(F)F [Example 59, 1-(Toluene-4-sulfonyl)-piperidine-4-carboxylic acid [4-((R)-3-methoxy-1-trifluoromethyl-propoxy)-phenyl]-amide]
Second: Cc1ccc(S(=O)(=O)N2CCC(C(=O)NCC3(c4ccc(Cl)cc4)CC3)CC2)cc1 [Example 64, 1-(Toluene-4-sulfonyl)-piperidine-4-carboxylic acid [1-(4-chloro-phenyl)-cyclopropylmethyl]-amide]
The IC50 of the first is 5.1-fold lower: 290 nM for the first, 1490 nM for the second. The first is the more potent here.

`O=C(NCC1(c2ccc(Cl)cc2)CC1)C1CCN(S(=O)(=O)c2ccccc2Cl)CC1` [Example 61, 1-(2-Chloro-benzenesulfonyl)-piperidine-4-carboxylic acid [1-(4-chloro-phenyl)-cyclopropylmethyl]-amide] and `O=C(NCC1(c2ccc(Cl)cc2)CC1)C1CCN(S(=O)(=O)c2ccccc2)CC1` [Example 62, 1-Benzenesulfonyl-piperidine-4-carboxylic acid [1-(4-chloro-phenyl)-cyclopropylmethyl]-amide] are within 1.5-fold of each other in IC50: 640 nM for the first, 530 nM for the second.
